Results taken from ChEMBL document CHEMBL3885861, “Open TG-GATES”.

Organism: Rattus norvegicus
Assay: Open TG-GATES - Regimen: Single
Format: toxicity, organism-based, Sprague-Dawley
Set-up: regimen Single, gender Male, age 6 weeks
Conditions: in vivo, po, 0 mg/kg, route gavage, dose level Control; for APTT / Bas / Eos / Fbg / Hb / Ht / Lym / MCHC / MCV / Mono / PT / Plat / RBC / Ret / WBC: tissue Blood; for KIDNEY_L / KIDNEY_R / KIDNEY_TOTAL: tissue Kidney; for LIVER: tissue Liver; for ALP / ALT / AST / BUN / CRE / DBIL / GLC / K / LDH / Na / PL / RALB / TBIL / TC / TG / TP / gamma-GTP: tissue Plasma

SMILES: O=C1NC(=O)C(c2ccccc2)(c2ccccc2)N1 [PHENYTOIN]
- TERMINAL_BW (3 h): 209.3 g
- APTT (3 h): 16.8 s
- Bas (3 h): 0.4%
- Eos (3 h): 0.8%
- Fbg (3 h): 267 mg/dL
- Hb (3 h): 13.4 g/dL
- Ht (3 h): 40.2%
- Lym (3 h): 78.6%
- MCHC (3 h): 33.3%
- MCV (3 h): 62.2 fL
- Mono (3 h): 3%
- PT (3 h): 13.9 s
- Plat (3 h): 116.9 x10_4/uL
- RBC (3 h): 646.8 x10_4/ul
- Ret (3 h): 8.3%
- WBC (3 h): 81.2 x10_2/uL
- KIDNEY_L (3 h): 0.9 g
- KIDNEY_R (3 h): 0.9 g
- KIDNEY_TOTAL (3 h): 1.9 g
- LIVER (3 h): 9.6 g
- ALP (3 h): 1709.4 IU/L
- ALT (3 h): 37 IU/L
- AST (3 h): 75.6 IU/L
- BUN (3 h): 9.8 mg/dL
- CRE (3 h): 0.2 mg/dL
- DBIL (3 h): 0.018 mg/dL
- GLC (3 h): 177.4 mg/dL
- K (3 h): 4.1 meq/L
- LDH (3 h): 127.8 IU/L
- Na (3 h): 141.6 meq/L
- PL (3 h): 145.2 mg/dL
- RALB (3 h): 2.5 g/dL
- TBIL (3 h): 0.056 mg/dL
- TC (3 h): 75.8 mg/dL
- TG (3 h): 61.4 mg/dL
- TP (3 h): 5.4 g/dL
- gamma-GTP (3 h): 1.2 IU/L
- TERMINAL_BW (6 h): 207.9 g
- APTT (6 h): 16.8 s
- Bas (6 h): 0.6%
- Eos (6 h): 0.8%
- Fbg (6 h): 297.4 mg/dL
- Hb (6 h): 13.3 g/dL
- Ht (6 h): 39.4%
- Lym (6 h): 79.4%
- MCHC (6 h): 33.6%
- MCV (6 h): 61.5 fL
- Mono (6 h): 3%
- PT (6 h): 14.1 s
- Plat (6 h): 121.6 x10_4/uL
- RBC (6 h): 641.4 x10_4/ul
- Ret (6 h): 7.5%
- WBC (6 h): 97.9 x10_2/uL
- KIDNEY_L (6 h): 0.9 g
- KIDNEY_R (6 h): 0.9 g
- KIDNEY_TOTAL (6 h): 1.8 g
- LIVER (6 h): 8.5 g
- ALP (6 h): 1520.6 IU/L
- ALT (6 h): 34.4 IU/L
- AST (6 h): 67.6 IU/L
- BUN (6 h): 8.6 mg/dL
- CRE (6 h): 0.2 mg/dL
- DBIL (6 h): 0.018 mg/dL
- GLC (6 h): 184.2 mg/dL
- K (6 h): 4.3 meq/L
- LDH (6 h): 96.2 IU/L
- Na (6 h): 142.2 meq/L
- PL (6 h): 139.6 mg/dL
- RALB (6 h): 2.5 g/dL
- TBIL (6 h): 0.05 mg/dL
- TC (6 h): 77.8 mg/dL
- TG (6 h): 44.2 mg/dL
- TP (6 h): 5.4 g/dL
- gamma-GTP (6 h): 1.4 IU/L
- TERMINAL_BW (9 h): 205.9 g
- APTT (9 h): 15.5 s
- Bas (9 h): 0.6%
- Eos (9 h): 0.8%
- Fbg (9 h): 295.6 mg/dL
- Hb (9 h): 13.5 g/dL
- Ht (9 h): 40.5%
- Lym (9 h): 76.2%
- MCHC (9 h): 33.4%
- MCV (9 h): 61.1 fL
- Mono (9 h): 2.6%
- PT (9 h): 13.8 s
- Plat (9 h): 126 x10_4/uL
- RBC (9 h): 663.4 x10_4/ul
- Ret (9 h): 7.6%
- WBC (9 h): 79.7 x10_2/uL
- KIDNEY_L (9 h): 0.9 g
- KIDNEY_R (9 h): 0.9 g
- KIDNEY_TOTAL (9 h): 1.8 g
- LIVER (9 h): 8.7 g
- ALP (9 h): 1437.2 IU/L
- ALT (9 h): 29.8 IU/L
- AST (9 h): 68.8 IU/L
- BUN (9 h): 9.8 mg/dL
- CRE (9 h): 0.2 mg/dL
- DBIL (9 h): 0.014 mg/dL
- GLC (9 h): 177.4 mg/dL
- K (9 h): 4.2 meq/L
- LDH (9 h): 93.4 IU/L
- Na (9 h): 142.4 meq/L
- PL (9 h): 131.6 mg/dL
- RALB (9 h): 2.5 g/dL
- TBIL (9 h): 0.052 mg/dL
- TC (9 h): 72.4 mg/dL
- TG (9 h): 40 mg/dL
- TP (9 h): 5.5 g/dL
- gamma-GTP (9 h): 1.6 IU/L
- TERMINAL_BW (24 h): 224.3 g
- APTT (24 h): 17.7 s
- Bas (24 h): 0.4%
- Eos (24 h): 1%
- Fbg (24 h): 273.4 mg/dL
- Hb (24 h): 13.2 g/dL
- Ht (24 h): 39.1%
- Lym (24 h): 79.8%
- MCHC (24 h): 33.7%
- MCV (24 h): 62.6 fL
- Mono (24 h): 2.2%
- PT (24 h): 14.4 s
- Plat (24 h): 121.9 x10_4/uL
- RBC (24 h): 625.6 x10_4/ul
- Ret (24 h): 7.8%
- WBC (24 h): 108.2 x10_2/uL
- KIDNEY_L (24 h): 1 g
- KIDNEY_R (24 h): 1 g
- KIDNEY_TOTAL (24 h): 2.1 g
- LIVER (24 h): 10.6 g
- ALP (24 h): 1864.2 IU/L
- ALT (24 h): 42.4 IU/L
- AST (24 h): 75.2 IU/L
- BUN (24 h): 14.8 mg/dL
- CRE (24 h): 0.2 mg/dL
- DBIL (24 h): 0.024 mg/dL
- GLC (24 h): 187.6 mg/dL
- K (24 h): 4 meq/L
- LDH (24 h): 95.6 IU/L
- Na (24 h): 142.6 meq/L
- PL (24 h): 152 mg/dL
- RALB (24 h): 2.6 g/dL
- TBIL (24 h): 0.042 mg/dL
- TC (24 h): 74.8 mg/dL
- TG (24 h): 100.2 mg/dL
